US12077503B2, “Substituted cyclic amides and their use as herbicides” (FMC CORPORATION, priority 2015, dated 2024)

What was measured:
Type in all cases: in vivo
[1] = test system: soybean (Glycine max); experiment: Test C preemergence; conditions: for Plant response rating (scale of 0 to 100), Soybean: 0 is no effect, 100 is complete control; for Plant response rating, Soybean: scale 0 to 100, 0 no effect, 100 complete control
Summary of the method: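 Herbicidal effect, applied preemergence to sown seeds or postemergence to 1- to 4-leaf plants, was scored visually 13 to 15 d after application, 0 to 100 versus controls.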

[2] = test system: giant foxtail (Setaria faberii); experiment: Test A preemergence
Summary of the method: (§1)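 In a loam soil and sand blend, planted seeds got a preemergence directed soil spray, and young plants at the one- to two-leaf stage, 2–10 cm high, got a postemergence application; ~10 d greenhouse hold; injury rated visually, 0 = none, 100 = complete control.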

[3] = test system: ragweed (common ragweed, Ambrosia elatior); experiment: Test A preemergence; conditions: preemergence
Summary of the method: as §1

[4] = test system: Kochia (Kochia scoparia); experiment: Test A preemergence
Summary of the method: as §1

[5] = test system: barnyardgrass (Echinochloa crus-galli); experiment: Test A preemergence
Summary of the method: as §1

[6] = test system: ryegrass, Italian (Italian ryegrass, Lolium multiflorum); experiment: Test A preemergence; conditions: preemergence
Summary of the method: as §1

[7] = test system: pigweed (Amaranthus retroflexus); experiment: Test A preemergence; conditions: preemergence
[8] = test system: barnyardgrass (Echinochloa crus-galli); experiment: Test B flooded paddy test; conditions: Flood, 250 g ai/ha; 0 to 100 scale where 0 is no effect and 100 is complete control; 13 to 15 d
Summary of the method: (§2)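 Evaluation by eye, against controls, occurred 13–15 d post-treatment in a greenhouse, using a 0 (no effect) to 100 (complete control) scale. Application was into the paddy water, 3 cm deep over the soil, on 2-leaf plants.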

[9] = test system: sedge, umbrella (small-flower umbrella sedge, Cyperus difformis); experiment: Test B flooded paddy test; conditions: Flood, 250 g ai/ha; scale of 0 to 100 where 0 is no effect and 100 is complete control
Summary of the method: as §2

[10] = test system: rice (Oryra sativa); experiment: Test B flooded paddy test; conditions: Flood, 250 g ai/ha; 0 to 100 scale where 0 is no effect and 100 is complete control; 13 to 15 d
Summary of the method: as §2

[11] = test system: ducksalad (Heteranthera limosa); experiment: Test B flooded paddy test; conditions: Flood, 250 g ai/ha; 0 to 100 scale where 0 is no effect and 100 is complete control; 13 to 15 d
Summary of the method: as §2

[12] = test system: Galium (catchweed bedstraw, Galium aparine); experiment: Test A postemergence; conditions: postemergence, 0 to 100 scale (0 no effect, 100 complete control)
Summary of the method: as §1

[13] = test system: giant foxtail (Setaria faberii); experiment: Test A postemergence; conditions: postemergence, 0 to 100 scale (0 no effect, 100 complete control)
Summary of the method: as §1

[14] = test system: ragweed (common ragweed, Ambrosia elatior); experiment: Test A postemergence; conditions: postemergence, 0 to 100 scale (0 no effect, 100 complete control)
Summary of the method: as §1

[15] = test system: Kochia (Kochia scoparia); experiment: Test A postemergence; conditions: postemergence, 0 to 100 scale (0 no effect, 100 complete control)
Summary of the method: as §1

[16] = test system: barnyardgrass (Echinochloa crus-galli); experiment: Test A postemergence; conditions: postemergence, 0 to 100 scale (0 no effect, 100 complete control)
Summary of the method: as §1

[17] = test system: blackgrass (Alopecurus myosuroides); experiment: Test A postemergence; conditions: postemergence, 0 to 100 scale (0 no effect, 100 complete control)
Summary of the method: as §1

[18] = test system: ryegrass, Italian (Italian ryegrass, Lolium multiflorum); experiment: Test A postemergence; conditions: postemergence, 0 to 100 scale (0 no effect, 100 complete control)
Summary of the method: as §1

[19] = test system: corn (Zea mays); experiment: Test A postemergence; conditions: postemergence, 0 to 100 scale (0 no effect, 100 complete control)
Summary of the method: as §1

[20] = test system: wheat (Triticum aestivum); experiment: Test A postemergence; conditions: postemergence, 0 to 100 scale (0 no effect, 100 complete control)
Summary of the method: as §1

[21] = test system: pigweed (Amaranthus retroflexus); experiment: Test A postemergence; conditions: postemergence, 0 to 100 scale (0 no effect, 100 complete control)
Summary of the method: as §1

[22] = 125 g ai/ha, Preemergence, visual injury after approximately 10 d, 0 to 100 scale where 0 is no effect and 100 is complete control
[23] = 500 g ai/ha, preemergence, 0 to 100 scale, 0 = no effect, 100 = complete control
[24] = 125 g ai/ha, visual rating after approx. 10 d, 0 to 100 scale where 0 is no effect and 100 is complete control
[25] = 500 g ai/ha, 0 to 100 scale, 0 = no effect, 100 = complete control
[26] = 125 g ai/ha, visual injury after approximately 10 d
[27] = 500 g ai/ha, visual injury, approx. 10 d
[28] = 125 g ai/ha, visual rating after approx. 10 d

## CN1CC(c2ccc(C(C)(F)F)cc2)C(C(=O)Nc2ccccc2F)C1=O (stereo not shown) [Compound 691]
[1]; 16 g ai/ha
  Plant response rating (scale of 0 to 100), Soybean: 0
[1]; 31 g ai/ha
  Plant response rating (scale of 0 to 100), Soybean: 0
[1]; 62 g ai/ha
  Plant response rating, Soybean: 15
[1]; 125 g ai/ha
  Plant response rating, Soybean: 15
[2]; [22]
  Plant response rating, Foxtail, Giant: 90
[2]; [23]
  Plant response rating, Foxtail, Giant: 90
[3]; [24]
  Plant response rating, Ragweed: 60
[3]; [25]
  Plant response rating, Ragweed: 90
[4]; [22]
  Plant response rating, Kochia: 80
[4]; [23]
  Plant response rating, Kochia: 90
[5]; [22]
  Plant response rating, Barnyardgrass: 90
[5]; [23]
  Plant response rating, Barnyardgrass: 90
[6]; [24]
  Plant response rating, Ryegrass, Italian: 50
[6]; [25]
  Plant response rating, Ryegrass, Italian: 60
[7]; [24]
  Plant response rating, Pigweed: 70
[7]; [25]
  Plant response rating, Pigweed: 80
[8]
  Plant response rating, Barnyardgrass: 70
[9]
  Sedge, Umbrella plant response rating: 0
[10]
  Plant response rating, Rice: 25
[11]
  Plant response rating, Ducksalad: 95
[12]; [26]
  Plant response rating, Galium: 70
[12]; [27]
  Plant response rating, Galium: 70
[13]; [26]
  Plant response rating, Foxtail, Giant: 80
[13]; [27]
  Plant response rating, Foxtail, Giant: 80
[14]; [26]
  Plant response rating, Ragweed: 50
[14]; [27]
  Plant response rating, Ragweed: 60
[15]; [26]
  Plant response rating, Kochia: 70
[15]; [27]
  Plant response rating, Kochia: 80
[16]; [28]
  Plant response rating, Barnyardgrass: 80
[16]; [27]
  Plant response rating, Barnyardgrass: 80
[17]; [28]
  Plant response rating, Blackgrass: 50
[17]; [27]
  Plant response rating, Blackgrass: 60
[18]; [26]
  Plant response rating, Ryegrass, Italian: 50
[18]; [27]
  Plant response rating, Ryegrass, Italian: 60
[19]; [26]
  Plant response rating, Corn: 60
[19]; [27]
  Plant response rating, Corn: 90
[20]; [26]
  Plant response rating, Wheat: 50
[20]; [27]
  Plant response rating, Wheat: 60
[21]; [26]
  Plant response rating, Pigweed: 40
[21]; [27]
  Plant response rating, Pigweed: 70
